Data as given in patent US11014911B2, “CDK2 inhibitors” (Pfizer Inc., priority 2019, dated 2021).

Biological target: CDK2/Cyclin E1 full length (Homo sapiens (Human), UniProt P24941)
Assay: CDK2/Cyclin E1 full length mobility shift assay
Type: biochemical

Question: Cc1ccnc(CC(=O)Nc2cc([C@H]3CC[C@@H](OC(=O)NC4(C)CC4)C3)[nH]n2)c1 [Example 425, (1R,3S)-3-(3-{[(4-methylpyridin-2-yl)acetyl]amino}-1H-pyrazol-5-yl)cyclopentyl (1-methylcyclopropyl)carbamate] was tested. Which Ki did it give?
Answer: 1.05 nM

Question: For Cc1cnc(CC(=O)Nc2cc([C@H]3CC[C@@H](OC(=O)NC(C)CC(F)(F)F)C3)[nH]n2)cn1 (single isomer, unassigned) [Example 73], which Ki is on record?
Answer: 2.31 nM

Question: How did the Ki turn out when COCc1cc(C(=O)Nc2cc([C@H]3CC[C@@H](OC(=O)N[C@@H](C)COC)C3)n[nH]2)n(C)n1 [Example 521, (1R,3S)-3-[5-({[3-(methoxymethyl)-1-methyl-1H-pyrazol-5-yl]carbonyl}amino)-1H-pyrazol-3-yl]cyclopentyl [(2S)-1-methoxypropan-2-yl]carbamate] was run?
Answer: 1.95 nM

Question: With Cc1cnc(CC(=O)Nc2cc([C@H]3CC[C@@H](OC(=O)NC4(C)CCOC4)C3)[nH]n2)o1 (single isomer, unassigned) [Example 478] as the compound, how does the Ki read?
Answer: 1.13 nM

Question: CC(C)NC(=O)O[C@@H]1CC[C@H](c2cc(NC(=O)Cc3ccc(C(F)(F)F)cn3)n[nH]2)C1 [Example 286, (1R,3S)-3-[3-({[5-(trifluoromethyl)pyridin-2-yl]acetyl}amino)-1H-pyrazol-5-yl]cyclopentyl propan-2-ylcarbamate] was tested. Which Ki did it give?
Answer: 4.14 nM

Question: O=C(Cc1nccs1)Nc1cc([C@H]2CC[C@@H](OC(=O)NCCC(F)(F)F)C2)[nH]n1 [Example 219, (1R,3S)-3-{3-[(1,3-thiazol-2-ylacetyl)amino]-1H-pyrazol-5-yl}cyclopentyl (3,3,3-trifluoropropyl)carbamate] was tested. Which Ki did it give?
Answer: 3.81 nM

Question: How did the Ki turn out when Cc1nc(CC(=O)Nc2cc([C@H]3CC[C@@H](OC(=O)NC4(C)CC4)C3)[nH]n2)cs1 [Example 431, (1R,3S)-3-(3-{[(2-methyl-1,3-thiazol-4-yl)acetyl]amino}-1H-pyrazol-5-yl)cyclopentyl (1-methylcyclopropyl)carbamate] was run?
Answer: 1.19 nM

Question: With CCCN(CCC)C(=O)O[C@@H]1CC[C@H](c2cc(NC(=O)Cc3ccno3)n[nH]2)C1 [Example 225, (1R,3S)-3-{3-[(1,2-oxazol-5-ylacetyl)amino]-1H-pyrazol-5-yl}cyclopentyl dipropylcarbamate] as the compound, how does the Ki read?
Answer: 2.67 nM

Question: Which Ki does the source give for CC1(NC(=O)O[C@@H]2CC[C@H](c3cc(NC(=O)Cc4ccon4)n[nH]3)C2)CC1 [Example 419, (1R,3S)-3-{3-[(1,2-oxazol-3-ylacetyl)amino]-1H-pyrazol-5-yl}cyclopentyl (1-methylcyclopropyl)carbamate] here?
Answer: 0.36 nM

Question: COc1ccc(CC(=O)Nc2cc([C@@H]3CC[C@H](OC(=O)N4C[C@@](C)(O)[C@@H]4C)C3)[nH]n2)cn1 [Example 626, (1S,3R)-3-(3-{[(6-methoxypyridin-3-yl)acetyl]amino}-1H-pyrazol-5-yl)cyclopentyl (2S,3R)-3-hydroxy-2,3-dimethylazetidine-1-carboxylate] was tested. Which Ki did it give?
Answer: 4.73 nM

Question: Which Ki does the source give for CC(CO)CNC(=O)O[C@@H]1CC[C@H](c2cc(NC(=O)Cc3cc(F)cc(F)c3)n[nH]2)C1 (single isomer, unassigned) [Example 539] here?
Answer: 2.35 nM

Question: With C[C@@H]1CCN1C(=O)O[C@@H]1CC[C@H](c2cc(NC(=O)Cc3cnn(C)c3)n[nH]2)C1 [Example 587, (1R,3S)-3-(3-{[(1-methyl-1H-pyrazol-4-yl)acetyl]amino}-1H-pyrazol-5-yl)cyclopentyl (2R)-2-methylazetidine-1-carboxylate] as the compound, how does the Ki read?
Answer: 2.77 nM

Question: With CC[C@H](C)NC(=O)O[C@@H]1CC[C@H](c2cc(NC(=O)Cc3cn(C)nn3)n[nH]2)C1 [Example 331, (1R,3S)-3-(3-{[(1-methyl-1H-1,2,3-triazol-4-yl)acetyl]amino}-1H-pyrazol-5-yl)cyclopentyl (2S)-butan-2-ylcarbamate] as the compound, how does the Ki read?
Answer: 1.49 nM

Question: With CC[C@H](C)NC(=O)O[C@@H]1CC[C@H](c2cc(NC(=O)Cc3ccc(C(F)(F)F)cn3)n[nH]2)C1 [Example 360, (1R,3S)-3-[3-({[5-(trifluoromethyl)pyridin-2-yl]acetyl}amino)-1H-pyrazol-5-yl]cyclopentyl (2S)-butan-2-ylcarbamate] as the compound, how does the Ki read?
Answer: 1.46 nM

Question: Which Ki does the source give for C[C@H](F)[C@H](C)NC(=O)O[C@@H]1CC[C@H](c2cc(NC(=O)Cc3cnn(C)c3)n[nH]2)C1 (single isomer, unassigned) [Example 381, (1R,3S)-3-(3-{[(1-methyl-1H-pyrazol-4-yl)acetyl]amino}-1H-pyrazol-5-yl)cyclopentyl [(2S*,3S*)-3-fluorobutan-2-yl]carbamate] here?
Answer: 3.11 nM

Question: With Cc1cnc(CC(=O)Nc2cc([C@H]3CC[C@@H](OC(=O)N[C@@H](C)CF)C3)[nH]n2)o1 [Example 379, (1R,3S)-3-(3-{[(5-methyl-1,3-oxazol-2-yl)acetyl]amino}-1H-pyrazol-5-yl)cyclopentyl [(2S)-1-fluoropropan-2-yl]carbamate] as the compound, how does the Ki read?
Answer: 3.05 nM

Question: For COc1cc(CC(=O)Nc2cc([C@H]3CC[C@@H](OC(=O)N4[C@H](C)C[C@H]4C)C3)[nH]n2)ccn1 [Example 609, (1R,3S)-3-(3-{[(2-methoxypyridin-4-yl)acetyl]amino}-1H-pyrazol-5-yl)cyclopentyl (2R,4R)-2,4-dimethylazetidine-1-carboxylate], which Ki is on record?
Answer: 4.81 nM

Question: For C[C@@H](NC(=O)O[C@@H]1CC[C@H](c2cc(NC(=O)Cc3ccon3)n[nH]2)C1)C1CC1 [Example 467, (1R,3S)-3-{3-[(1,2-oxazol-3-ylacetyl)amino]-1H-pyrazol-5-yl}cyclopentyl [(1R)-1-cyclopropylethyl]carbamate], which Ki is on record?
Answer: 1.2 nM

Question: For Cc1cnc(CC(=O)Nc2cc([C@H]3CC[C@@H](OC(=O)NC4(C)CCOCC4)C3)[nH]n2)o1 [Example 508, (1R,3S)-3-(3-{[(5-methyl-1,3-oxazol-2-yl)acetyl]amino}-1H-pyrazol-5-yl)cyclopentyl (4-methyltetrahydro-2H-pyran-4-yl)carbamate], which Ki is on record?
Answer: 1.46 nM

Question: Which Ki does the source give for CC1(NC(=O)O[C@@H]2CC[C@H](c3cc(NC(=O)Cc4ccno4)n[nH]3)C2)CCOC1 (single isomer, unassigned) [Example 474] here?
Answer: 0.44 nM

Question: COc1cnc(CC(=O)Nc2cc([C@H]3CC[C@@H](OC(=O)NC(C)C)C3)[nH]n2)s1 [Example 280, (1R,3S)-3-(3-{[(5-methoxy-1,3-thiazol-2-yl)acetyl]amino}-1H-pyrazol-5-yl)cyclopentyl propan-2-ylcarbamate] was tested. Which Ki did it give?
Answer: 2.12 nM

Question: How did the Ki turn out when C[C@H]1CCN1C(=O)O[C@@H]1CC[C@H](c2cc(NC(=O)c3cncn3C)n[nH]2)C1 [Example 585, (1R,3S)-3-(3-{[(1-methyl-1H-imidazol-5-yl)carbonyl]amino}-1H-pyrazol-5-yl)cyclopentyl (2S)-2-methylazetidine-1-carboxylate] was run?
Answer: 2.57 nM

Question: How did the Ki turn out when Cc1ncc(CC(=O)Nc2cc([C@H]3CC[C@@H](OC(=O)N4C[C@@H](C#N)[C@@H]4C)C3)[nH]n2)s1 (single isomer, unassigned) [Example 159] was run?
Answer: 3.63 nM

Question: How did the Ki turn out when Cc1ccnc(CC(=O)Nc2cc([C@H]3CC[C@@H](OC(=O)NC4(C)CC4)C3)[nH]n2)c1Cl [Example 441, (1R,3S)-3-(3-{[(3-chloro-4-methylpyridin-2-yl)acetyl]amino}-1H-pyrazol-5-yl)cyclopentyl (1-methylcyclopropyl)carbamate] was run?
Answer: 1.42 nM

Question: How did the Ki turn out when O=C(Cc1ccon1)Nc1cc([C@H]2CC[C@@H](OC(=O)NC3(CC(F)(F)F)CC3)C2)[nH]n1 [Example 451, (1R,3S)-3-{3-[(1,2-oxazol-3-ylacetyl)amino]-1H-pyrazol-5-yl}cyclopentyl [1-(2,2,2-trifluoroethyl)cyclopropyl] carbamate] was run?
Answer: 0.46 nM
